Laboratory results reported in patent publication EP2325185A1, “Plk inhibitor” (GPC Biotech AG, priority 2009, dated 2011).
Where two headings read alike, the source gives them in different places.

Experiments:
A-431 = experiment: SRB cell proliferation assay, A-431; format: cell-based; details: Homo sapiens; A-431 (skin); compound 1 tested in racemic mixture
Method: (§1) Cells were exposed to the test compound racemate at various concentrations appropriate to determine an IC50 for 72 hours. Cell proliferation was measured using the SRB assay according to Shekan et al (J Natl Cancer Inst (1990) 82, 1107-112) in order to estimate the IC50 values shown in Table 3. Briefly, cells were plated in 96 well dishes 24 hours prior to compound addition at the densities specified in Table 5.1. The assay was terminated with the addition of cold TCA to a final concentration of 10% after growth medium has been removed and the plates were incubated over night at 4°C. The plates were then washed 5 times with water and 100µl of a Sulforhodamine B solution ([…]) was added to each well. The plates were then incubated for 10 minutes at room temperature before removal of unbound dye by washing with 1% acetic acid. The bound dye was solubilised with 10 mM Trizma base and the absorbance read at OD520.
(§2) Inhibitory activity of the compound (IC) was calculated as % inhibition of cell proliferation compared to cells treated with the solvent (DMSO).
(§3) Table 8.1: 18-Cell Line Panel

A549 = experiment: SRB cell proliferation assay, A549; format: cell-based; details: Homo sapiens; A549 (lung); compound 1 tested in racemic mixture
Method: as §1, §2, §3

ACHN = experiment: SRB cell proliferation assay, ACHN; format: cell-based; details: Homo sapiens; ACHN (kidney); compound 1 tested in racemic mixture
Method: as §1, §2, §3

DU 145 = experiment: SRB cell proliferation assay, DU 145; format: cell-based; details: Homo sapiens; DU 145 (prostate); compound 1 tested in racemic mixture
Method: as §1, §2, §3

MDA-MB-468 = experiment: SRB cell proliferation assay, MDA-MB-468; format: cell-based; details: MDA-MB-468 (breast), compound 1 tested in racemic mixture
Method: as §1, §2, §3

NCI-H460 = experiment: SRB cell proliferation assay, NCI-H460; format: cell-based; details: Homo sapiens; NCI-H460 (NSCLC); compound 1 tested in racemic mixture
Method: as §1, §2, §3

OVCAR-3 = experiment: SRB cell proliferation assay, OVCAR-3; format: cell-based; details: Homo sapiens; OVCAR-3 (ovary); compound 1 tested in racemic mixture
Method: as §1, §2, §3

PC-3 = experiment: SRB cell proliferation assay, PC-3; format: cell-based; details: Homo sapiens; PC-3 (prostate); compound 1 tested in racemic mixture
Method: as §1, §2, §3

SW620 = experiment: SRB cell proliferation assay, SW620; format: cell-based; details: Homo sapiens, SW-620; SW620 (colon); compound 1 tested in racemic mixture
Method: as §1, §2, §3

A-375 = experiment: SRB cell proliferation assay, A-375; format: cell-based; details: Homo sapiens; A-375 (melanoma); compound 1 tested in racemic mixture
Method: as §1, §2, §3

HT-29 = experiment: SRB cell proliferation assay, HT-29; format: cell-based; details: Homo sapiens; HT-29 (colon); compound 1 tested in racemic mixture; read-out: IC50
Method: as §1, §2, §3

HCT 116 = experiment: SRB cell proliferation assay, HCT 116; format: cell-based; details: Homo sapiens; HCT 116 (colon); compound 1 tested in racemic mixture; read-out: IC50
Method: as §1, §2, §3

HeLa = experiment: SRB cell proliferation assay, HeLa; format: cell-based; details: Homo sapiens; HeLa (cervix); compound 1 tested in racemic mixture
Method: as §1, §2, §3

IMR-90 = experiment: SRB cell proliferation assay, IMR-90; format: cell-based; details: Homo sapiens; IMR-90 (lung); compound 1 tested in racemic mixture; read-out: IC50
Method: as §1, §2, §3

MDA-MB-231 = experiment: SRB cell proliferation assay, MDA-MB-231; format: cell-based; details: Homo sapiens; MDA-MB-231 (breast); compound 1 tested in racemic mixture
Method: as §1, §2, §3

SK-MEL-28 = experiment: SRB cell proliferation assay, SK-MEL-28; format: cell-based; details: Homo sapiens; SK-MEL-28 (melanoma); compound 1 tested in racemic mixture
Method: as §1, §2, §3

SK-MEL-5 = experiment: SRB cell proliferation assay, SK-MEL-5; format: cell-based; details: Homo sapiens; SK-MEL-5 (melanoma); compound 1 tested in racemic mixture
Method: as §1, §2, §3

COLO 205 = experiment: SRB cell proliferation assay, COLO 205; format: cell-based; details: Homo sapiens; COLO 205 (colon); compound 1 tested in racemic mixture
Method: as §1, §2, §3

NCI-H460 tumor cells = experiment: Mouse xenograft model using human NCI-H460 cells; format: in vivo; details: for mean body weight / mean body weight change: end of day four after begin of treatment; for mice died: mouse, in vivo
Method: […]. Human HT-29 cells (ATCC) colon carcinoma cell line are cultured in McCoy's medium (ATCC) supplied with 10% FCS and 1% Pen/Strep. The 2nd passage of cells with approximately 80% confluence is used in the study. Briefly, on Day 0, mice are inoculated with 0.1 ml (total 5x10^6 cells) of HT-29 cell suspension (50x10^6 cells/ml in McCoy's medium without supplements mixed 1:1 with Matrigel) by a subcutaneous injection into the lower right flank under light anesthesia. When the average tumor weights reaches above 100mg, animals with an appropriate tumor size are selected and are randomly divided into treatment groups (10 animals each).
Tumor growth and body weight are monitored and recorded twice a week. Tumors are measured by determining the length and width of the tumor with a digital caliper. Tumor weight is estimated using the following formula: Tumor Weight (mg) = (w^2 x 1) / 2 where w = width and I = length in mm of the tumor.
Toxic deaths are defined as deaths caused by compound treatment and not by advanced disease state. […].
In a model similar to the one described in a), mice were inoculated with NCI-H460 tumor cells, and treated (9 mice for each treatment group) with either vehicle only (NMP:PEG300), compound 1 (70 mg/kg once per week), compound 1 (35 mg/kg twice per week), BI 6727 (70 mg/kg once per week) and gemcitabine (25 mg/kg, once per week) (vivoPharm Europe Limited, Munich, Germany). At the end of day four after begin of treatment, the mean body weight for the compound 1 treatment groups had dropped from 20.5 g to 19.2 g (~5%; standard deviation 2.6 g), and from 20.1 g to 19.3 g (-4%; standard deviation 0.9 g), respectively, and one mouse in the high-dose treatment group had died. In contrast, in the BI 6727 treatment group, the mean body weight had dropped from 20.2 g to 16.2 g (-20%; standard deviation 1.5 g), five mice had died and the remaining mice had to be killed for ethical reasons.

[1] = tested on: 255 other protein kinases; experiment: Standard selectivity panel (ProQinase), 255 other kinases; format: biochemical; details: 1 µM, duplicates; all other kinases
Method: (§4) The compound of the present invention was tested in a standard selectivity panel including Plkl and 255 other kinases (ProQinase GmbH, Freiburg, Germany), under conditions of non-disclosure, non-dissemination and non-use.
(§5) In brief, compound 1 (see Table 1) was tested at 1 µM in duplicates against Plk1 as well as against 255 other protein kinases, including Abl, Aktl, Aur A, Kit, Raf-1, Cdkl/CycB1, Chk1, FGF-R3, Flt3, Fyn, IGF1-R, INS-R, Lyn, p38a, PAK4, PKCalpha, Ret, ROCK2, Src, TIE2, and VEGF-R2. The test compound 1 inhibited Plk1 by more than about 90%, only three other kinases were inhibited by between about 50% and about 90%, about 13 kinases by between about 10% and about 50%, and all other kinases were inhibited by less than about 10%.

[2] = tested on: panel of 57 tumor cell lines; experiment: Panel of 57 tumor cell lines (OncoLead), growth inhibition; format: cell-based
Method: In a similar experiment, the inhibitory activity of compound 1 was tested against a panel of 57 tumor cell lines (OncoLead GmbH&Co.KG, Martinsried, Germany) under conditions of non-disclosure, non-dissemination and non-use.
In 18 cell lines, the GI50 value was between 1 µM and 0.1 µM, and in 31 cell lines, the GI50 value was below 0.1 µM.

Plk1 = Plk1 (Homo sapiens, UniProt P53350); experiment: Standard selectivity panel (ProQinase), Plk1; format: biochemical; set-up: purchased ProQinase GmbH, Freiburg, Germany; details: duplicates, read-out: inhibited Plk1
Method: as §4, §5

Plk1, sequence (P53350 whole entry, species assumed): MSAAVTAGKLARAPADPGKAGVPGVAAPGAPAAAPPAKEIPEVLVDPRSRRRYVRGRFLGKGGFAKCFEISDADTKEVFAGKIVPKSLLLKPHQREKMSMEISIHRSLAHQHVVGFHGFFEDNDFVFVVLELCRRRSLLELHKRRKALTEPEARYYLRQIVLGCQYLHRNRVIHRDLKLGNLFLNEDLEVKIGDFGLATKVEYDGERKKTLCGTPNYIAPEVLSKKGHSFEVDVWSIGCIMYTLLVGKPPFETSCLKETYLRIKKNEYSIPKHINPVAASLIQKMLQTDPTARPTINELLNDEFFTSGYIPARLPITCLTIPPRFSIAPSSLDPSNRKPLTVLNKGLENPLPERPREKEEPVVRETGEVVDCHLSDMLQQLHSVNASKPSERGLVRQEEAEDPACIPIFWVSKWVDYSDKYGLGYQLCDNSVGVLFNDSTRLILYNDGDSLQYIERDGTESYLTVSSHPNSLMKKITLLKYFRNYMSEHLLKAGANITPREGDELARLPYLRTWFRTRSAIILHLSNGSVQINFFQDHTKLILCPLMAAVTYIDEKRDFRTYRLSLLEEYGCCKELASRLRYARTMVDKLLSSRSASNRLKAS

| SMILES | IC50 (A-431) | IC50 (A549) | IC50 (ACHN) | IC50 (DU 145) | IC50 (NCI-H460) | IC50 (OVCAR-3) | IC50 (PC-3) | IC50 (SW620) | IC50 (A-375) | IC50 (HT-29) | IC50 (HCT 116) | IC50 (HeLa) | IC50 (IMR-90) | IC50 (MDA-MB-231) | IC50 (SK-MEL-28) | IC50 (SK-MEL-5) | IC50 (COLO 205) | mean body weight (NCI-H460 tumor cells; 70 mg/kg once per week) | mean body weight change (NCI-H460 tumor cells; 70 mg/kg once per week) | mice died (NCI-H460 tumor cells) | other results |
| --- | --- | --- | --- | --- | --- | --- | --- | --- | --- | --- | --- | --- | --- | --- | --- | --- | --- | --- | --- | --- | --- |
| CC[C@@H]1C(=O)N(C)c2cnc(Nc3ccc(C(=O)NC4CCN(C)CC4)cc3OC)nc2N1C1CCCC1 [BI 2536, reference compound] | < 1000 nM | < 1000 nM | < 1000 nM | < 1000 nM | < 1000 nM | < 1000 nM | < 1000 nM | < 1000 nM | < 1000 nM | < 1000 nM | < 1000 nM | < 1000 nM | > 1000 nM | < 1000 nM | < 1000 nM | < 1000 nM | < 1000 nM |  |  |  | IC50 (MDA-MB-468): plateau at ∼50% |
| CC[C@@H]1C(=O)N(C)c2cnc(Nc3ccc(C(=O)N[C@H]4CC[C@H](N5CCN(CC6CC6)CC5)CC4)cc3OC)nc2N1C(C)C [BI 6727, reference compound] |  |  |  |  |  |  |  |  |  |  |  |  |  |  |  |  |  | 16.2 g | -20% | five |  |
| CC[C@@H]1C(=O)N(C)c2cnc(Nc3ccc(C(=O)N[C@H]4CC[C@H](N5CCN(CC6CC6)CC5)CC4)cc3OC)nc2N1N(C)C [Compound 1, (7R)-N-[trans-4-(4-Cyclopropylmethyl-piperazin-1-yl)-cyclohexyl]-4-(8-dimethylamino-7-ethyl-5-methyl-6-oxo-5,6,7,8-tetrahydro-pteridin-2-ylamino)-3-methoxy-benzamide] | < 1000 nM | < 1000 nM | < 1000 nM | < 1000 nM | < 1000 nM | < 1000 nM | < 1000 nM | < 1000 nM | < 1000 nM | < 1000 nM | < 1000 nM | < 1000 nM | > 1000 nM | < 1000 nM | > 1000 nM | < 1000 nM | < 1000 nM | 19.2 g | ~ 5% | one | kinases inhibited [1]: less than 10%; IC50 (MDA-MB-468; Homo sapiens, read-out: IC50): > 1000 nM; GI50 ([2]; in 18 cell lines of 57): 100 to 1000 nM; GI50 ([2]; in 31 cell lines of 57): < 100 nM; GI50 ([2]; in about 49 cell lines of 57): < 1000 nM; mean body weight (NCI-H460 tumor cells; 35 mg/kg twice per week): 19.3 g; mean body weight change (NCI-H460 tumor cells; 35 mg/kg twice per week): -4%; tumor growth (NCI-H460 tumor cells; 70 mg/kg once per week and 35 mg/kg twice per week, compared with vehicle only or gemcitabine groups): a reduction of tumor growth could be observed; inhibition at 1 µM (Plk1): > 90% |
